# Assay results as given in patent publication US20110212199A1, “AGENT FOR TREATING EYE DISEASES” (priority 2003, published 2011).
# How the values were obtained:
# Format in all cases: in vivo, human
# [1] = test system: pigmentary retinal degeneration; assay: Example 45: pigmentary retinal degeneration; details: person; 60 mg/l included in cyclodextrin, 1 drop (50 μl) twice a day for 3 months
# [2] = test system: primary open angle glaucoma; assay: Example 56: primary open angle glaucoma; details: person; 10 mg/l in 2-hydroxypropyl-β-cyclodextrin and γ-cyclodextrin, 1 drop (50 μl) twice a day for a half year
# Excerpt: It can be confirmed that administration of raloxifen with eye drops is effective for the treatment of primary open angle glaucoma.
# open-angle glaucoma [3] = assay: Example 39: open-angle glaucoma
# Excerpt: It can be confirmed that it is effective for treatment of high tension glaucoma to lower intraocular pressure.
# cataract [4] = assay: Example 62: cataract; details: person, right eye; 100 mg/l, 1 drop (50 μl) twice a day for 67 days
# cataract [5] = assay: Example 38: cataract; details: 49 days
# [6] = test system: central retinal vein occlusion; assay: Example 57: central retinal vein occlusion; details: person; 100 mg/l, 1 drop (50 μl) twice a day for 112 days
# Excerpt: It can be confirmed that administration of trans-resveratrol with eye drops is effective for the treatment of central retinal vein occlusion.
# open-angle glaucoma [7] = assay: Example 41: open-angle glaucoma; details: person; 100 mg/l, 1 drop (50 μl) once a day for 14 days
# Excerpt: It can be confirmed that administration of trans-resveratrol to eye is effective for treatment of high tension glaucoma.
# iridocyclitis = assay: Example 60: iridocyclitis; details: person, right eye; 100 mg/l, 1 drop (50 μl) twice a day for 10 days
# Excerpt: It can be confirmed that administration of trans-resveratrol is effective for the treatment of iridocyclitis.
# corneal erosion (KSD) = assay: Example 36: corneal erosion; details: person; cyclodextrin-included eye drops of Example 32(1), 1 drop (50 μl) twice a day for 3 days
# normal tension glaucoma = assay: Example 42: normal tension glaucoma; details: person; 100 mg/l, 1 drop (50 μl) once a day for 33 days
# Excerpt: It can be confirmed that administration of trans-resveratrol to eyes is effective for treatment of normal tension glaucoma.
# [8] = test system: Posner-Schlossmans' Syndrome (glaucoma); assay: Example 40: Posner-Schlossmans' Syndrome; details: thereafter 100 mg/l eye drops, 1 drop (50 μl) once a day for 3 months
# Method: Thereafter, 1 drop (50 μl) of eye drops containing trans-resveratrol (100 mg/l) included in cyclodextrin prepared in Example 32(1) was administered once a day for 3 months, then no attack occurred for 3 months or more.
# [9] = test system: dry eye and ischemic optic neuropathy; assay: Example 61: dry eye and ischemic optic neuropathy
# Excerpt: It can be confirmed that administration of trans-resveratrol is effective for the treatment of dry eye and ischemic optic neuropathy.
# myopia = assay: Example 37: myopia; details: 21 days; before 0.9
# glaucoma = assay: Example 58: glaucoma; details: person; 100 mg/l, 1 drop (50 μl) twice a day for 3 months
# Excerpt: It can be confirmed that administration of trans-resveratrol with eye drops is effective for the treatment of glaucoma.
SMILES,visual field [1],visual fields by OCTOPUS 1-2-3 static perimeter [2],"intraocular pressure ToS (open-angle glaucoma [3]; 98 days, before 22) [mmHg]","intraocular pressure ToD (open-angle glaucoma [3]; person, 100 mg/l, 1 drop (50 μl) twice a day for 98 days, before 21) [mmHG]",opacity of cataract (cataract [4]),"cataract opacity, slit lamp microscope (cataract [5])",corrected visual acuity Vs (cataract [5]; before 1.2),"chorioretinal hemorrhage, left eye [6]","visual field, left eye (open-angle glaucoma [7])",iridocyclitis outcome (iridocyclitis),corneal erosion symptom (corneal erosion (KSD)),visual fields (normal tension glaucoma),period without attack [8] [months],ischemic optic neuropathy ([9]; 46 days),"lacrimation and dry eye ([9]; person, 100 mg/l, 1 drop (50 μl) twice a day for 46 days)",visual acuity Vs (myopia),visual fields by OCTOPUS 1-2-3 static perimeter (glaucoma)
O=C(c1ccc(OCCN2CCCCC2)cc1)c1c(-c2ccc(O)cc2)sc2cc(O)ccc12 [raloxifene],visual field was improved,the visual fields were improved,–,–,–,–,–,–,–,–,–,–,–,–,–,–,–
Oc1ccc(/C=C/c2cc(O)cc(O)c2)cc1 [trans-resveratrol],–,–,13,14,opacity of cataract was reduced,cataract opacity was lightened,1.5,chorioretinal hemorrhage was disappeared,visual field was improved,iridocyclitis was cured,the symptom was lightened,visual fields were improved,≥ 3,ischemic optic neuropath was improved,"lacrimation was increased, dry eye was cured",1.2,the visual fields were improved
